pKd: −log10 of the molar value. Several values for one entry are separate records, joined by “and”; a condition that tells them apart may be missing. Identical values can stand only once. Like-named read-outs stand apart in the source and are kept apart here. Peptide text beside a SMILES is read from it.
Legend:
[1] = test system: second representative of the glnA motif from a marine metagenomic sequence; test: In-line probing of a second glnA motif representative; format: binding; conditions: for binding by the RNA: at 1 mM (data not shown)
Text: (§1) RNAs were 5′-^32P radiolabeled and subjected to in-line probing analyses, which have been described in detail previously (Soukup et al. Relationship between internucleotide linkage geometry and the stability of RNA. RNA 1999; 5:1308-1325; Regulski E E, Breaker R R. In-line probing analysis of riboswitches. Methods Mol Biol 2008; 419:53-67). Briefly, 5′ triphosphates were removed from the RNAs using alkaline phosphatase (Roche) according to the manufacturer's protocol. The dephosphorylated RNAs were 5′-^32P radiolabeled by incubation with [γ-^32P] ATP and T4 polynucleotide kinase (New England Biolabs), following the manufacturer's directions. Denaturing PAGE (6%) was subsequently employed to purify the RNAs as described above. The radiolabeled RNAs were then incubated at 23° C. in a solution containing 75 mM Tris-HCl (pH 8.3 at 23° C.), 20 mM MgCl2, 100 mM KCl, and various different potential ligands (see results section for full list) at concentrations ranging from 1 μM to 10 mM in most cases. When RNAs were subjected to in-line probing with 100 mM L-glutamate, the amino acid replaced the Tris-HCl as the buffering agent. HCl and NaOH were used to adjust this modified in-line probing solution to pH 8.3.
(§2) After incubating for approximately 40 hours, the products of in-line probing reactions were separated by denaturing 10% PAGE. The gels were then dried and imaged using a Storm 820 PhosphorImager (GE Healthcare). The relative intensities of the various degradation products were quantified using SAFA v1.1 software (Das et al. SAFA: Semi-automated footprinting analysis software for high-throughput quantification of nucleic acid footprinting experiments. RNA 2005; 11:344-354). The bands which modulated the most intensely were used to make KD estimates.

67 glnA RNA = test: In-line probing of 67 glnA RNA; format: binding, Synechococcus elongatus; conditions: for binding by the 67 glnA aptamer: concentrations as high as 10 mM
Text: as §1
as §2, with “estimates. In the cases where the concentrations of ligand used were insufficiently high to saturate RNA binding, the data was normalized to KD values that best explained the data assuming a standard one-to-one interaction.” for “estimates.”

83 DP RNA = test: In-line probing of 83 DP RNA (Downstream-peptide motif); format: binding, Synechococcus sp. CC9902; conditions: for binding by the Downstream-peptide glutamine aptamer: stated in the discussion for both aptamer subtypes, concentration not given at place; for pKd: 1-to-1 interaction, read-out: apparent KD
Text: as §1, §2

[2] = test system: 67 glnA mutant RNA construct M1; test: In-line probing of 67 glnA mutant M1 (disruptive mutations); format: binding, Synechococcus elongatus; conditions: two disruptive mutations in P2 stem
Experimental: (§3) Pairs of oligonucleotides were used in primer extension reactions to make full-length double-stranded DNA (dsDNA) products to use as templates for in vitro transcription reactions. Primers 1 and 2 were used for 67 glnA, 2 and 3 for Ml, 4 and 5 for M3, 1 and 6 for M2, 1 and 7 for M4, 8 and 9 for 83 DP, 8 and 10 for M5, and 8 and 11 for M6. A 100 μl solution containing 300 pmoles of each primer, 50 mM Tris-HCl (pH 8.3 at 23° C.), 75 mM KCl, 3 mM MgCl2, […] dithiothreitol (DTT), 1 mM of each of the four deoxynucleoside triphosphates (dNTPs), and 8 U/μl of SuperScript II Reverse Transcriptase (Invitrogen) was heated for 2 hours at 42° C. The full length dsDNA was then purified using the QIAquick PCR Purification Kit (QIAgen) following the manufacturer's protocol and was eluted in a volume of 50 […]
(§4) After incubating for approximately 40 hours, the products of in-line probing reactions were separated by denaturing 10% PAGE. […] The relative intensities of the various degradation products were quantified using SAFA v1.1 software (Das et al. SAFA: Semi-automated footprinting analysis software for high-throughput quantification of nucleic acid footprinting experiments. RNA 2005; 11:344-354). […]

[3] = test system: 67 glnA mutant RNA construct M2; test: In-line probing of 67 glnA mutant M2 (disruptive mutations); format: binding, Synechococcus elongatus; conditions: two disruptive mutations in P3 stem
Experimental: as §3, §4

construct M3 = test: In-line probing of 67 glnA construct M3 (compensatory mutations); format: binding, Synechococcus elongatus
Experimental: as §3, §4

construct M4 = test: In-line probing of 67 glnA construct M4 (compensatory mutations); format: binding, Synechococcus elongatus
Experimental: as §3, §4

M5 RNA = test: In-line probing of mutant 83 DP RNA M5 (disrupted pseudoknot); format: binding, Synechococcus sp. CC9902; conditions: two disruptive mutations in the pseudoknot
Experimental: as §3, §4

pfl RNA [4] = test: In-line probing experiments with a pfl RNA; format: binding, Clostridium acetobutylicum ATCC 824; conditions: 1 mM except where noted
Experimental: Some riboswitches were tested for metabolite binding using in-line probing experiments (Regulski et al. In-line probing analysis of riboswitches. Methods Mol Biol 2008, 419:53-67). RNAs tested were transcribed in vitro from a DNA template using RNA polymerase T7. In the experiments described below, no modulation in gel patterns was observed that would indicate metabolite binding.
Experiments were performed with the following RNA encoded by Clostridium acetobutylicum ATCC 824:
The following metabolites were tested at 1 mM except where noted: AICAR riboside, AICAR ribotide, SAICAR, GAR, pyruvate, guanine (100 μM), hypoxanthine (40 μM), IMP, formate, THF, dihydrofolate, 5-formyl-THF, 10-formyl-THF, methylene-THF, methenyl-THF, methyl-THF, SAICAR, glutamate, glutamine, glycine, serine, aspartate, dUMP, homocysteine, SAM, AICA, CAIR, CoA, acetyl-CoA, alanine, NAD, NADH, NADP, NADPH, dCMP, histidine, D-ribose 5′-phosphate, adenine, D-ribose, NADH, SAICAR, CAIR, glycine, PRPR, ppGpp, cAMP, HMP, ATP (600 μM), CTP (600 μM), GTP (600 μM), UTP (600 μM), AMP, ADP, GMP, GDP, UMP, UDP, uridine, and tryptophan.

pfl RNA [5] = test: RNase protection assay (RNase T1 and V1) with pfl RNA; format: binding, Clostridium acetobutylicum ATCC 824; conditions: shorter incubation time than in-line probing
Experimental: Due to the instability of PRPP, it was also tested in an RNase protection assay with RNase T1 and V1. The use of an RNase permits a shorter incubation time than used for in-line probing.

SK209-52 RNA = test: In-line probing of SK209-52 RNA (SAM/SAH motif); format: binding, Roseobacter sp. SK209-2-6; conditions: SAM samples may contain breakdown product SAH, read-out: apparent dissociation constant (KD)
Experimental: RNA constructs were prepared by in vitro RNA transcription RNA using T7 RNA polymerase and the appropriate DNA templates that were created by overlap extension of synthetic DNA oligonucleotides using SuperScript II reverse transcriptase (Invitrogen) as instructed by the manufacturer. RNA transcripts were purified using denaturing (8 M urea) polyacrylamide gel electrophoresis (PAGE). RNAs were eluted from the gel, dephosphorylated using alkaline phosphatase and 5′ radiolabeled with [γ-32P] using methods reported previously (Wang et al. Riboswitches that sense S-adenosylhomocysteine and activate genes involved in coenzyme recycling. Mol Cell 2008, 29:691-702). 5′ 32P-labeled fragments resulting from in-line probing reactions were subjected to denaturing PAGE, imaged and analyzed as previously described (Wang et al. Riboswitches that sense S-adenosylhomocysteine and activate genes involved in coenzyme recycling. Mol Cell 2008, 29:691-702).

[6] = test system: SAM-Chlorobi RNA (four RNAs with different 3′ ends); test: In-line probing experiments with SAM-Chlorobi RNA; format: binding, Chlorobium tepidum TLS; conditions: 1 mM
Experimental: Some riboswitches were tested for metabolite binding using in-line probing experiments (Regulski et al. In-line probing analysis of riboswitches. Methods Mol Biol 2008, 419:53-67). RNAs tested were transcribed in vitro from a DNA template using RNA polymerase T7. In the experiments described below, no modulation in gel patterns was observed that would indicate metabolite binding. […] Experiments were performed on the following four RNAs, encoded by Chlorobium tepidum TLS, which have different 3′ ends: Lowercase letters represent G nucleotides that were added to improve transcription yield. The following metabolites were tested at 1 mM: SAM, SAH, methionine, and homocysteine.

O=C(O)CCC(=O)C(=O)O [2-oxoglutarate]
binding by the RNA [1]: rejected

NC(=O)CCCC(=O)O [5-amino-5-oxopentanoic acid]
binding by the 67 glnA aptamer (67 glnA RNA; in-line probing): rejected | binding by the Downstream-peptide glutamine aptamer (83 DP RNA): loss of binding

CC(=O)CC[C@H](N)C(=O)O [(S)-2-amino-5-oxo-hexanoic acid]
binding by the 67 glnA aptamer (67 glnA RNA; in-line probing): rejected | binding by the Downstream-peptide glutamine aptamer (83 DP RNA): reject

C[C@H](N)C(=O)N[C@@H](CCC(N)=O)C(=O)O [Ala-Gln] (H-Ala-Gln-OH)
binding by the 67 glnA aptamer (67 glnA RNA; in-line probing): rejected | binding by the Downstream-peptide glutamine aptamer (83 DP RNA): neither Ala-Gln nor L-glutamine t-butyl ester are bound

NC(=O)CC[C@@H](N)C(=O)O [D-glutamine]
affinity relative to its more common isomer (L-glutamine) (67 glnA RNA; in-line probing): approximately 1/10 | fold tighter binding of L-glutamine compared to D-glutamine (67 glnA RNA; in-line probing): 10 fold | binding to 83 DP RNA (83 DP RNA; concentrations up to 10 mM): no binding was detected

NC(=O)C[C@H](N)C(=O)O [L-asparagine]
binding by the 67 glnA aptamer (67 glnA RNA; in-line probing): rejected

CC(C)(C)OC(=O)[C@@H](N)CCC(N)=O [L-glutamine t-butyl ester]
binding by the 67 glnA aptamer (67 glnA RNA; in-line probing): rejected | binding by the Downstream-peptide glutamine aptamer (83 DP RNA): neither Ala-Gln nor L-glutamine t-butyl ester are bound

NC(=O)CC[C@H](N)C(=O)O [L-glutamine]
pattern of RNA cleavage products (67 glnA RNA; 1 mM glutamine added to in-line probing assay containing 100 mM glutamate): produced the pattern of RNA cleavage products expected for glutamine binding | pKd (67 glnA RNA; curve expected for a 1-to-1 RNA-ligand interaction (FIG. 30C), read-out: KD): 3.24 | pKd (67 glnA RNA; in-line probing, one-to-one interaction, read-out: apparent dissociation constant (KD)): ~3.24 | pKd [1]: ~3.82 | pKd (83 DP RNA; listed as glutamine): ~2.30 | pKd (83 DP RNA): 2.30 | structural modulation upon addition of glutamine [2]: no modulation | structural modulation upon addition of glutamine [3]: no modulation | structural modulation in response to glutamine addition (construct M3): regain structural modulation | structural modulation in response to glutamine addition (construct M4): regain structural modulation | binding to glutamine (M5 RNA): does not bind

NC(=O)CCC[C@H](N)C(=O)O [L-homoglutamine]
binding by the 67 glnA aptamer (67 glnA RNA; in-line probing): rejected | binding by the Downstream-peptide glutamine aptamer (83 DP RNA): reject

NCCCC[C@H](N)C(=O)O [L-lysine]
binding by the RNA [1]: rejected

CCNC(=O)CC[C@H](N)C(=O)O [L-theanine]
binding by the 67 glnA aptamer (67 glnA RNA; in-line probing): rejected

NC(=O)CC[C@H](N)CC(=O)O [L-β-homo glutamine]
binding by the 67 glnA aptamer (67 glnA RNA; in-line probing): rejected

CC(=O)OC[C@H](N)C(=O)O [O-acetyl-L-serine]
binding by the 67 glnA aptamer (67 glnA RNA; in-line probing): rejected

O=P(O)(O)OC[C@H]1O[C@H](OP(=O)(O)OP(=O)(O)O)[C@H](O)[C@@H]1O [PRPP]
modulation in gel patterns that would indicate metabolite binding (pfl RNA [4]): did not reveal evidence of binding | change in degradation patterns (pfl RNA [5]): no change in degradation patterns was detected

Nc1ncnc2c1ncn2[C@@H]1O[C@H](CSCC[C@H](N)C(=O)O)[C@@H](O)[C@H]1O [SAH, S-adenosylhomocysteine]
pKd (SK209-52 RNA): ~5.37 | modulation in gel patterns that would indicate metabolite binding [6]: did not reveal binding

C[S+](CC[C@H](N)C(=O)[O-])C[C@H]1O[C@@H](n2cnc3c(N)ncnc32)[C@H](O)[C@@H]1O (stereo partly shown) [SAM, S-adenosylmethionine]
pKd (SK209-52 RNA): 5.07 and ~5.07 | modulation in gel patterns that would indicate metabolite binding [6]: did not reveal binding

N=C(N)NCCCCN [agmatine]
binding by the RNA [1]: rejected

N[C@@H](CCC(=O)O)C(=O)O [glutamate]
structural modulation (67 glnA RNA; in-line probing, 100 mM glutamate as the primary buffering agent): no structural modulation was observed | binding by the RNA [1]: rejected | binding by the Downstream-peptide glutamine aptamer (83 DP RNA): reject

O=C(O)CCCC(=O)O [glutaric acid]
binding by the RNA [1]: rejected

NCCCCN [putrescine]
binding by the RNA [1]: rejected

Cc1ncc(COP(=O)(O)O)c(C=O)c1O [pyridoxal phosphate]
binding by the RNA [1]: rejected

O=C(O)CCC(=O)O [succinate]
binding by the RNA [1]: rejected

O=CCCC(=O)O [succinic semialdehyde]
binding by the RNA [1]: rejected

NCCCC(=O)O [γ-aminobutyric acid]
binding by the RNA [1]: rejected

Source: US20120321647A1, “STRUCTURED RNA MOTIFS AND COMPOUNDS AND METHODS FOR THEIR USE” (YALE UNIVERSITY, priority 2010, published 2012)
